In patent US20180311611A1, “ABSORBENT FOR THE SELECTIVE REMOVAL OF HYDROGEN SULFIDE” (BASF SE, priority 2015, published 2018):
Read-outs that look alike come from different tables or passages of the source.

How the values were obtained:
[1] = pKA determination of amines by pH at half-equivalence with hydrochloric acid; conditions: for pKA (120° C.) / pKA (50° C.): aqueous solution, amine 0.01 mol/kg; for ΔpKA (120 − 50° C.): difference between 120° C. and 50° C.
Description: (§1) The pKA values are suitably determined in aqueous solution with an amine concentration of 0.01 mol/kg at the given temperature by determining the pH at the point of half-equivalence of the dissociation stage under consideration by means of addition of hydrochloric acid (1st dissociation stage 0.005 mol/kg; 2nd dissociation stage: 0.015 mol/kg; 3rd dissociation stage: 0.025 mol/kg). Measurement is accomplished using a thermostated closed jacketed vessel in which the liquid was blanketed with nitrogen. The Hamilton Polylite Plus 120 pH electrode was used, which was calibrated with pH 7 and pH 12 buffer solutions.

Description for physchem: as §1

Structure (SMILES)	pKa (physchem; aqueous solution of the amine)	pKA (120° C.) ([1]; dissociation stage pKA1)	ΔpKA (120 − 50° C.) ([1]; dissociation stage pKA1)	pKA (50° C.) ([1]; dissociation stage pKA2)	pKA (120° C.) ([1]; dissociation stage pKA2)	ΔpKA (120 − 50° C.) ([1]; dissociation stage pKA2)	pKa (physchem)	pKA (50° C.) ([1]; dissociation stage pKA3)	pKA (120° C.) ([1]; dissociation stage pKA3)	ΔpKA (120 − 50° C.) ([1]; dissociation stage pKA3)	pKA (50° C.) ([1]; dissociation stage pKA1)
CN(C)C1CCC(N(C)C)CC1 (stereo not shown) [1,4-Bis(dimethylamino)cyclohexane]	9.8	8.17	1.63	8.01	6.67	1.34					
CN(C)C1CCCCC1 [Cyclohexyl-N,N-dimethylamine]							10				
CN(C)CCCN(CCO)CCCN(C)C [Hydroxyethylbis(dimethylaminopropyl)amine]	10.1	8.63	1.51	10.13	8.62	1.51		10.12	8.69	1.43	
CN(C)CCCN1CN(CCCN(C)C)CN(CCCN(C)C)C1 [N,N,N′,N′,N″,N″-Hexamethyl-1,3,5-triazine-1,3,5(2H,4H,6H)-tripropanamine]	11.2	9.78	1.59		9.35	1.88		10.45	7.97	2.48	11.37
